Assays:
[1] = system: Geobacillus stearothermophilus spores; test: VOC production (SPME, GC-MS) during the first 20 minutes of spore germination, growth medium with or without additive (Example 1); format: cell-based
Procedure: Spore suspension of Geobacillus stearothermophilus (1×10^6 CFU/0.1 mL) were diluted to reach a concentration of 500-800 CFU/30-50 μL after being heat shock for 15 min at 95-99° C. to kill all vegetative cell that might have been present in the suspension.
A modified soybean casein digest broth was diluted (10×) with HPLC grade water and sterilize by filtration 0.45 μm to limit the amount of VOC in the background. was used with or without the addition of an additive.
For the VOC testing, 0.5 mL of the sterile diluted growth medium was transferred in each VOC collection vials. The vials were prewarm at 60° C. for at least 10 minutes. Before starting the VOC sampling, the additive was added to the vials, then the spores according to Table 1 in function of the test to be performed. The VOC were sampled by inserting the SPME fiber into the vial as soon as the spores were added, and the vials were put back in the temperature control systems. The SPME fiber use was an assembly Divinylbenzene/Carboxen/Polydimethylsiloxane (DVB/CAR/PDMS) (Sigma Aldrich—product number 57328-U from Supelco) conditioned at 270° C. for 30 minutes before use. The SPME fibers were removed 20 minutes after the addition of the spores and were analyzed using the GC-MS according to the lab protocols for the apparatus.

[2] = system: Geobacillus stearothermophilus spores; test: VOC production (SPME, GC-MS) during the first 15 minutes of spore germination, growth medium with L-threonine or glucose (Example 2); format: cell-based
Procedure: Spore suspension of Geobacillus stearothermophilus (1×10^6 CFU/0.1 mL) were heated for 30 min at 99-100° C. to kill all vegetative cell that might have been present in the suspension.
A growth medium composed of a modified soybean casein digest broth diluted (200×) with the sterilized germination medium (1,0 mM L-valine in 10 mM sodium phosphate buffer (pH 8.0) as described by “thou T, Dong Z, Setlow P, Li Y-q (2013), Kinetics of Germination of Individual Spores of Geobacillus stearothermophilus as Measured by Raman Spectroscopy and Differential Interference Contrast Microscopy. PLoS ONE 8(9): e74987)” was used with or without the addition of L-threonine or glucose at 5 mM. One test was also performed with the germination medium by itself, without the modified soybean casein digest broth diluted (200×) and the additives. The controls included the SPME fiber alone, in the presence of 2500 μg methanol, and growth medium with and without the L-Threonine or glucose.
For the VOC testing, 0.5 mL of the control solution (methanol) or sterile growth medium was transferred in each VOC collection vials. The vials were prewarm at 65° C. for at least 10 minutes. […] The SPME fibers were removed 15 minutes after the addition of the spores and were analyzed using the GC-MS according to the lab protocols for the apparatus.

[3] = GM + spores (about 500-800 CFU) + additive 5 mM, 60° C., 20 minutes

Row | SMILES | Detection of 1-Nonene, Nonane, 1-Octene, Octane, Heptane ([1]; Example 1) | Propene concentration change from the presence of the additive ([1]; Example 1) | 1-butanol intensity in comparison to the growth medium intensity [1, 3] | Acetaldehyde intensity in comparison to the growth medium intensity [1, 3] | Formaldehyde intensity in comparison to the growth medium intensity [1, 3] | Nonanal Octanal Heptanal intensity in comparison to the growth medium intensity [1, 3] | Formation of common VOC such as 1-nonene ([2]; Example 2) | Butanal produced (qualitative amount) ([2]; GM + 5 mM additive + 5000-10000 spores, 65° C., 15 minutes)
1 | CO[C@H]1O[C@H](CO)[C@@H](O)[C@H](O)[C@H]1O [Additive, Methyl alpha-D-glucopyranoside] | detected only in the presence of the additive | not increasing | (+up to 3X) | to 2X | (+10X) | (up to 3X) |  | 
2 | C[C@@H](O)[C@H](N)C(=O)O [L-threonine] |  |  |  |  |  |  | leads to the formation | <control

From patent publication US20240132931A1, “Biological Indicator with Enhanced Volatile Organic Compound Detection” (O&M Halyard, Inc., priority 2022, published 2024)
